Measured values: US8188127B2, “Microbicidal composition” (Rohm and Haas Company, priority 2007, dated 2012)
Several values for one entry are separate records, joined by “and”; a condition that tells them apart may be missing. Equal entries are not always repeated. One block for each compound: values may come before it.

Legend:
Format in all cases: cell-based
A. niger ATCC # 16404 = assay: Microtiter plate MIC / synergy test (Kull synergy index), mold, PDB medium; conditions: for Ca: ppm AI of first component (A) alone (MIC, QA) / Cb: ppm AI of MBIT alone (MIC, QB): A. niger; for Ca: MIC of BIOBAN1246 alone: component alone; for Cb: MIC of MBIT alone (QB): PDB medium, 25° C.
Source text: (§1) One measure of synergism is the industrially accepted method described by Kull, F. C.; Eisman, P. C.; Sylwestrowicz, H. D. and Mayer, R. L., in Applied Microbiology 9:538-541 (1961), using the ratio determined by the formula: Qa/QA+Qb/QB=Synergy Index (“SI”) wherein: • QA=concentration of compound A (first component) in ppm, acting alone, which produced an end point (MIC of Compound A). • Qa=concentration of compound A in ppm, in the mixture, which produced an end point. • QB=concentration of compound B (second component) in ppm, acting alone, which produced an end point (MIC of Compound B). • Qb=concentration of compound B in ppm, in the mixture, which produced an end point.
(§2) When the sum of Qa/QA and Qb/QB is greater than one, antagonism is indicated. […] The lower the SI, the greater the synergy shown by that particular mixture. The minimum inhibitory concentration (MIC) of a microbicide is the lowest concentration tested under a specific set of conditions that prevents the growth of added microorganisms.
(§3) Synergy tests were conducted using standard microtiter plate assays with media designed for optimal growth of the test microorganism. Minimal salt medium supplemented with 0.2% glucose and 0.1% yeast extract (M9GY medium) was used for testing bacteria; Potato Dextrose Broth (PDB medium) was used for testing yeast and mold. In this method, a wide range of combinations of microbicides was tested by conducting high resolution MIC assays in the presence of various concentrations of MBIT. High resolution MICs were determined by adding varying amounts of microbicide to one column of a microtitre plate and doing subsequent […] dilutions using an automated liquid handling system to obtain a series of endpoints ranging from 2 ppm to 10,000 ppm active ingredient.
(§4) The synergy of the combinations of the present invention was determined against several microorganisms, as described in the Tables below. The bacteria were used at a concentration of about 5×10^6 bacteria per mL and the yeast and mold at 5×10^5 fungi per mL. These microorganisms are representative of natural contaminants in many consumer and industrial applications. […] (yeast and mold) or 30° C. (bacteria).
(§5) In each test, Second Component (B) was MBIT and the First Component (A) was the other commercial microbicide.

C. albicans ATCC # 10231 = assay: Microtiter plate MIC / synergy test (Kull synergy index), yeast, PDB medium; conditions: for Ca: ppm AI of first component (A) alone (MIC, QA) / Cb: ppm AI of MBIT alone (MIC, QB): C. albicans; for Ca: MIC of BIOBAN1246 alone: component alone; for Cb: MIC of MBIT alone (QB): PDB medium, 25° C.
Source text: as §1, §2, §3, §4, §5

[1] = tested on: Ps. aeruginosa ATCC # 9027; assay: Microtiter plate MIC / synergy test (Kull synergy index), bacteria, M9GY medium; conditions: for Ca: ppm AI of first component (A) alone (MIC, QA) / Cb: ppm AI of MBIT alone (MIC, QB): Ps. aeruginosa; for Ca: MIC of BIOBAN1246 alone: component alone; for Cb: MIC of MBIT alone (QB): M9GY medium, 30° C.
Method: as §2, §3
The bacteria were used at a concentration of about 5×10^6 bacteria per mL and the yeast and mold at 5×10^5 fungi per mL. These microorganisms are representative of natural contaminants in many consumer and industrial applications. […] (yeast and mold) or 30° C. (bacteria).
as §5

S. aureus ATCC # 6538 = assay: as above; conditions: for Ca: ppm AI of first component (A) alone (MIC, QA) / Cb: ppm AI of MBIT alone (MIC, QB): S. aureus; for Ca: MIC of BIOBAN1246 alone: component alone; for Cb: MIC of MBIT alone (QB): M9GY medium, 30° C.
Source text: as §1, §2, §3, §4, §5

[2] = A. niger ATCC # 16404, contact time 3 days
[3] = A. niger ATCC # 16404, contact time 7 days
[4] = C. albicans ATCC # 10231, contact time 48 hrs
[5] = C. albicans ATCC # 10231, contact time 72 hrs
[6] = Ps. aeruginosa ATCC # 9027, contact time 24 hrs
[7] = Ps. aeruginosa ATCC # 9027, contact time 48 hrs
[8] = S. aureus ATCC # 6538, contact time 24 hrs
[9] = S. aureus ATCC # 6538, contact time 48 hrs

- Ca: ppm AI of first component (A) alone (MIC, QA) (A. niger ATCC # 16404; contact time 3 days): 525 ppm AI
- Ca: ppm AI of first component (A) alone (MIC, QA) (A. niger ATCC # 16404; contact time 7 days): 875 ppm AI
- Ca: ppm AI of first component (A) alone (MIC, QA) (C. albicans ATCC # 10231; contact time 48 hrs): 1100 ppm AI
- Ca: ppm AI of first component (A) alone (MIC, QA) (C. albicans ATCC # 10231; contact time 72 hrs): 1100 ppm AI
- Ca: ppm AI of first component (A) alone (MIC, QA) ([1]; contact time 24 hrs): 100 ppm AI
- Ca: ppm AI of first component (A) alone (MIC, QA) ([1]; contact time 48 hrs): 100 ppm AI
- Ca: ppm AI of first component (A) alone (MIC, QA) (S. aureus ATCC # 6538; contact time 24 hrs): 55 ppm AI
- Ca: ppm AI of first component (A) alone (MIC, QA) (S. aureus ATCC # 6538; contact time 48 hrs): 55 ppm AI
SMILES: CC1(C)COCN1 [BIOBAN 1135, 4,4-dimethyloxazolidine]

SMILES: CCC12COCN1COC2 [BIOBAN1246]
- Ca: MIC of BIOBAN1246 alone (A. niger ATCC # 16404; [2]): 650 ppm AI
- Ca: MIC of BIOBAN1246 alone (A. niger ATCC # 16404; [3]): 875 ppm AI
- Ca: MIC of BIOBAN1246 alone (C. albicans ATCC # 10231; [4]): 3000 ppm AI
- Ca: MIC of BIOBAN1246 alone (C. albicans ATCC # 10231; [5]): 4250 ppm AI
- Ca: MIC of BIOBAN1246 alone [1, 6]: 100 ppm AI
- Ca: MIC of BIOBAN1246 alone [1, 7]: 150 ppm AI
- Ca: MIC of BIOBAN1246 alone (S. aureus ATCC # 6538; [8]): 55 ppm AI
- Ca: MIC of BIOBAN1246 alone (S. aureus ATCC # 6538; [9]): 55 ppm AI

SMILES: Cn1sc2ccccc2c1=O [MBIT, N-methyl-1,2-benzisothiazolin-3-one]
- Cb: MIC of MBIT alone (QB) (A. niger ATCC # 16404; [2]): 37.5 ppm AI and 75 ppm AI
- Cb: MIC of MBIT alone (A. niger ATCC # 16404; A. niger ATCC # 16404, contact time 3 days, component alone (Table 8)): 75 ppm AI
- Cb: MIC of MBIT alone (A. niger ATCC # 16404; A. niger ATCC # 16404, contact time 3 days, component alone (Table 9)): 37.5 ppm AI
- Cb: MIC of MBIT alone (A. niger ATCC # 16404; A. niger ATCC # 16404, contact time 3 days, component alone (Table 10)): 37.5 ppm AI
- Cb: MIC of MBIT alone (QB) (A. niger ATCC # 16404; [3]): 150 ppm AI
- Cb: MIC of MBIT alone (A. niger ATCC # 16404; A. niger ATCC # 16404, contact time 7 days, component alone (Table 8)): 150 ppm AI
- Cb: MIC of MBIT alone (A. niger ATCC # 16404; A. niger ATCC # 16404, contact time 7 days, component alone (Table 9)): 150 ppm AI
- Cb: MIC of MBIT alone (A. niger ATCC # 16404; A. niger ATCC # 16404, contact time 7 days, component alone (Table 10)): 150 ppm AI
- Cb: ppm AI of MBIT alone (MIC, QB) (A. niger ATCC # 16404; contact time 3 days): 37.5 ppm AI and 75 ppm AI
- Cb: ppm AI of MBIT alone (MIC, QB) (A. niger ATCC # 16404; contact time 7 days): 150 ppm AI
- Cb: MIC of MBIT alone (QB) (C. albicans ATCC # 10231; [4]): 30 ppm AI
- Cb: MIC of MBIT alone (C. albicans ATCC # 10231; C. albicans ATCC # 10231, contact time 48 hrs, component alone (Table 8)): 30 ppm AI
- Cb: MIC of MBIT alone (C. albicans ATCC # 10231; C. albicans ATCC # 10231, contact time 48 hrs, component alone (Table 9)): 30 ppm AI
- Cb: MIC of MBIT alone (C. albicans ATCC # 10231; C. albicans ATCC # 10231, contact time 48 hrs, component alone (Table 10)): 30 ppm AI
- Cb: MIC of MBIT alone (QB) (C. albicans ATCC # 10231; [5]): 60 ppm AI and 30 ppm AI
- Cb: MIC of MBIT alone (C. albicans ATCC # 10231; C. albicans ATCC # 10231, contact time 72 hrs, component alone (Table 8)): 30 ppm AI
- Cb: MIC of MBIT alone (C. albicans ATCC # 10231; C. albicans ATCC # 10231, contact time 72 hrs, component alone (Table 9)): 30 ppm AI
- Cb: MIC of MBIT alone (C. albicans ATCC # 10231; C. albicans ATCC # 10231, contact time 72 hrs, component alone (Table 10)): 60 ppm AI
- Cb: ppm AI of MBIT alone (MIC, QB) (C. albicans ATCC # 10231; contact time 48 hrs): 30 ppm AI
- Cb: ppm AI of MBIT alone (MIC, QB) (C. albicans ATCC # 10231; contact time 72 hrs): 30 ppm AI
- Cb: MIC of MBIT alone (QB) [1, 6]: 75 ppm AI
- Cb: MIC of MBIT alone ([1]; Ps. aeruginosa ATCC # 9027, contact time 24 hrs, component alone (Table 8)): 75 ppm AI
- Cb: MIC of MBIT alone ([1]; Ps. aeruginosa ATCC # 9027, contact time 24 hrs, component alone (Table 9)): 75 ppm AI
- Cb: MIC of MBIT alone (QB) [1, 7]: 125 ppm AI
- Cb: MIC of MBIT alone ([1]; Ps. aeruginosa ATCC # 9027, contact time 48 hrs, component alone (Table 8)): 125 ppm AI
- Cb: MIC of MBIT alone ([1]; Ps. aeruginosa ATCC # 9027, contact time 48 hrs, component alone (Table 9)): 125 ppm AI
- Cb: MIC of MBIT alone ([1]; Ps. aeruginosa ATCC # 9027, contact time 48 hrs, component alone (Table 10)): 125 ppm AI
- Cb: ppm AI of MBIT alone (MIC, QB) ([1]; contact time 24 hrs): 75 ppm AI
- Cb: ppm AI of MBIT alone (MIC, QB) ([1]; contact time 48 hrs): 125 ppm AI
- Cb: MIC of MBIT alone (QB) (S. aureus ATCC # 6538; [8]): 15 ppm AI and 30 ppm AI
- Cb: MIC of MBIT alone (S. aureus ATCC # 6538; S. aureus ATCC # 6538, contact time 24 hrs, component alone (Table 8)): 30 ppm AI
- Cb: MIC of MBIT alone (S. aureus ATCC # 6538; S. aureus ATCC # 6538, contact time 24 hrs, component alone (Table 9)): 30 ppm AI
- Cb: MIC of MBIT alone (S. aureus ATCC # 6538; S. aureus ATCC # 6538, contact time 24 hrs, component alone (Table 10)): 15 ppm AI
- Cb: MIC of MBIT alone (QB) (S. aureus ATCC # 6538; [9]): 30 ppm AI
- Cb: MIC of MBIT alone (S. aureus ATCC # 6538; S. aureus ATCC # 6538, contact time 48 hrs, component alone (Table 8)): 30 ppm AI
- Cb: MIC of MBIT alone (S. aureus ATCC # 6538; S. aureus ATCC # 6538, contact time 48 hrs, component alone (Table 9)): 30 ppm AI
- Cb: ppm AI of MBIT alone (MIC, QB) (S. aureus ATCC # 6538; contact time 24 hrs): 15 ppm AI and 30 ppm AI
- Cb: ppm AI of MBIT alone (MIC, QB) (S. aureus ATCC # 6538; contact time 48 hrs): 30 ppm AI

SMILES: O=C([O-])CNCO.[Na+] [SUTTOCIDE A, sodium hydroxymethylglycinate]
- Ca: ppm AI of first component (A) alone (MIC, QA) (A. niger ATCC # 16404; contact time 3 days): 875 ppm AI
- Ca: ppm AI of first component (A) alone (MIC, QA) (A. niger ATCC # 16404; contact time 7 days): 1100 ppm AI
- Ca: ppm AI of first component (A) alone (MIC, QA) (C. albicans ATCC # 10231; contact time 48 hrs): 3000 ppm AI
- Ca: ppm AI of first component (A) alone (MIC, QA) (C. albicans ATCC # 10231; contact time 72 hrs): 3000 ppm AI
- Ca: ppm AI of first component (A) alone (MIC, QA) ([1]; contact time 24 hrs): 87.5 ppm AI
- Ca: ppm AI of first component (A) alone (MIC, QA) ([1]; contact time 48 hrs): 110 ppm AI
- Ca: ppm AI of first component (A) alone (MIC, QA) (S. aureus ATCC # 6538; contact time 24 hrs): 110 ppm AI
- Ca: ppm AI of first component (A) alone (MIC, QA) (S. aureus ATCC # 6538; contact time 48 hrs): 110 ppm AI
